Reference: patent US9393199B2, “Methods and compositions for localized agent delivery” (Massachusetts Institute of Technology, priority 2008, dated 2016)

Experiments:
[1] = Kinetics of protein release from lipid-coated PLGA particles in vitro (ELISA of supernatant); assay type: physicochemical; conditions: complete RPMI 10% FCS, 37° C., by the end of the incubation period (~1 week)
Description: FIGS. 5A-C. Protein and TLR ligand incorporation in lipid-coated PLGA nanoparticles. (A) Confocal image (left) and cryoEM image (right) of lipid-coated nanoparticles loaded with fluorescent ova in the particle cores. Note that the particles in the confocal image are artificially aggregated here by drying on a coverslip for imaging. (B) Kinetics of IL-15 release from lipid-coated PLGA particles in vitro in complete medium at 37° C. (C) Bone marrow-derived DCs were incubated with 3 mg/mL lipid-nanoparticles containing 1 mole % or 10 mole % MPLA in the lipid coating, equivalent amounts of soluble MPLA (30 μg/mL or 3 μg/mL), or soluble LPS (1 μg/mL) as a positive control. At 24 hrs, the maturation status of the cells was assessed by flow cytometry analysis of cell surface MHC II, CD80, and CD40 (not shown).
Ova however is a model globular protein and as such it was chosen to illustrate the behavior of other proteins such as interleukin-15 (IL-15) superagonist molecules which can be used to support ACT T cells. […] The kinetics of IL-15 release from the particles was determined by incubating the particles in complete RPMI medium containing 10% FCS at 37° C. with gentle agitation and taking aliquots of the supernatant at staggered timepoints for ELISA analysis of cytokine content. […]

[2] = systemically injected; cited from earlier work
[3] = tested on: lineage−Sca-1+c-kit+ progenitor cells; experiment: Reconstitution by hematopoietic progenitor cell grafts in lethally irradiated recipients; assay type: in vivo; conditions: 1.6 ng TWS119 at the time of transplantation
Description: FIGS. 14A-D. Hematopoietic progenitor cells (referred to in the Figure as HSCs) carrying GSK-3β inhibitor-loaded nanoparticles reconstitute recipient animals with rapid kinetics following bone marrow transplants without affecting multilineage differentiation potential. (A, B) Engraftment kinetics of luciferase-transgenic HSC grafts in lethally-irradiated nontransgenic syngeneic recipients. Mice were treated with a single bolus injection of the GSK-3β inhibitor TWS119 (1.6 ng) on the day of transplantation, an equivalent TWS119 dose encapsulated in HSC-attached DNA-gel nanoparticles, or no exogenous agent. Transplanted mice were imaged for whole-body bioluminescence every 7 days for 3 weeks. Shown are representative IVIS images (A) and whole animal photon counts (B) for 9 mice total/treatment condition. (C) Percentage of donor-derived cells in recipient mice 2 weeks after transplantation of GFP^+ HSCs with or without TWS119. *P<0.001. (D) Average frequency of donor-derived GFP^+ B cells, T cells, and myeloid cells in recipient mice 3 months after transplantation. 5 mice/group were analyzed.
We further examined the utility of this delivery approach in the context of hematopoietic stem cell transplantations. We treated C57Bl/6 F-luc-transgenic mice or C57Bl/6 GFP-transgenic mice with 5-fluorouracil (5-FU, Sigma Aldrich) (150 mg/kg, i.p) and euthanized them 3 days later. […]

[4] = Release of cargo from lipid-coated DNA-gel nanoparticles (data not shown); assay type: physicochemical; conditions: lipid-coated DNA-gel particles ~200 nm
[5] = systemic, delivered orally, humans; cited from earlier work
[6] = cited from earlier work

IL-15: Interleukin-15, cytokine; encapsulated alone in lipid-coated PLGA particles in b217
encapsulated cytokine released [1]: ~80%
half life [2]: ~1 h

Nc1cccc(-c2cc3c(Oc4cccc(O)c4)ncnc3[nH]2)c1 [TWS119]
engraftment kinetics / proliferative reconstitution of progenitor cell grafts [3]: did not significantly alter
period of slow release from DNA-gel nanoparticles [4]: 7 days

CC(C)Cn1cnc2c(N)nc3ccccc3c21 [imiquimod]
toxicity [5]: dose-limiting toxicity
half-life following injection [6]: ~2 h
